Reference: patent US6403533B2, “Stabilized microbicide formulation” (Rohm and Haas Company, priority 2000, dated 2002)

Experiment: Visual examination for brown precipitate formation upon storage of dilute aqueous CMI/MI solutions
Format: physicochemical
Settings: storage at 55 °C, 30 ppm copper ion
Protocol: An advantage of the compositions of the present invention is that they are both physically and chemically stable as prepared and upon storage. […] By “physically stable” we mean that the compositions are fluid and show no visible brown precipitate formation after storage for at least 4 weeks at 55° C., and preferably for at least 8 weeks at 55° C. By “chemically stable” is meant that the 3-isothiazolone, particularly the CMI compound, retains at least 60%, preferably at least 70% and more preferably at least 80%, of its original concentration in the dilute solution composition after storage for at least 4 weeks at 55° C., and preferably for at least 8 weeks at 55° C.
Some embodiments of the invention are described in detail in the following Examples. All ratios, parts and percentages are expressed by weight unless otherwise specified, and all reagents used are of good commercial quality unless otherwise specified. The level of copper is reported in ppm as the level of cupric ion. Samples were considered stable when the samples were free of brown precipitate after being stored at least 4 weeks, and preferably at least 8 weeks, at 55° C. Abbreviations used in the Examples and Tables are listed below with the corresponding descriptions.
The samples tested were prepared by adding known amounts of 3-isothiazolone, copper sulfate pentahydrate, water-soluble organic solvent and DI water to a 100-ml glass jar equipped with a magnetic stir bar. The 3-isothiazolone used was an approximate 3:1 (weight/weight) mixture of CMI and MI (98% purity). Ingredients were combined in a manner to provide test solutions containing 1.5% of the 3-isothiazolone (1.53 g per 100 g total solution), 30 ppm copper ion (0.0118 g copper sulfate pentahydrate per 100 g total solution) and various concentrations of water-soluble organic solvent (0 g, 1 g, 5 g, 10 g, 25 g and 50 g per 100 g total solution, corresponding to 0%, 1%, 5%, 10%, 25% or 50% solvent, respectively); the remainder of the solution (to 100 g total) was made up with DI water. Each sample was stirred until all solids were dissolved; portions (approximately 10 g) were then transferred to 20-ml glass vials and stored at room temperature or in an oven at 55° C. The samples were visually examined at various time points to determine the formation of brown precipitate and analyzed by HPLC/UV detection to determine the amount of CMI remaining; in all cases the amount of remaining MI was unchanged (100% of original value).

Structure (SMILES)	stabilizing effect of the solvent regarding prevention of brown precipitate formation (in words)
CCOC(C)=O [ethyl acetate, Ethyl Acetate]	effective stabilizing solvents at use levels above 1%
CCO [ethanol, Ethanol]	effective stabilizing solvents at use levels above 1%
CC(O)CO (stereo not shown) [PG, Propylene Glycol (1,2-Propanediol)]	effective stabilizing solvent above levels of 1%
OCCCCCO [1,5-pentanediol, 1,5-Pentandiol (Pentamethylene Glycol)]	effective stabilizing solvents at use levels above 1%
